pIC50: −log10 of the molar value.
Tested on: KRAS-mutant PDC complex spheroid viability
Experiment: Anticancer human tumor 186277-243-T-J2-PDC patient-derived colon adenocarcinoma cell line growth inhibition [KRAS2]
Settings: for pIC50: curve of first compound; for viability, T/C: stronger effect = lower value
Procedure, shortened: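 Combination screen of spheroid viability in tumor-cell co-cultures with endothelial (HUVEC) and mesenchymal stem cell stroma. Each agent was tested in half-log dilutions, topping at clinical Cmax or at 10 microM without a known Cmax.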

[1] = second compound 0.1 µM, first compound 0.000316 µM
[2] = second compound 0.1 µM, first compound 0.001 µM
[3] = second compound 0.1 µM, first compound 0.00316 µM
[4] = second compound 0.1 µM, first compound 0.01 µM
[5] = second compound 0.1 µM, first compound 0.0316 µM
[6] = second compound 0.1 µM, first compound 0.1 µM
[7] = second compound 0.316 µM, first compound 0.000316 µM
[8] = second compound 0.316 µM, first compound 0.001 µM
[9] = second compound 0.316 µM, first compound 0.00316 µM
[10] = second compound 0.316 µM, first compound 0.01 µM
[11] = second compound 0.316 µM, first compound 0.0316 µM
[12] = second compound 0.316 µM, first compound 0.1 µM
[13] = second compound 1 µM, first compound 0.000316 µM
[14] = second compound 1 µM, first compound 0.001 µM
[15] = second compound 1 µM, first compound 0.00316 µM
[16] = second compound 1 µM, first compound 0.01 µM
[17] = second compound 1 µM, first compound 0.0316 µM
[18] = second compound 1 µM, first compound 0.1 µM
[19] = second compound 3.16 µM, first compound 0.000316 µM
[20] = second compound 3.16 µM, first compound 0.001 µM
[21] = second compound 3.16 µM, first compound 0.00316 µM
[22] = second compound 3.16 µM, first compound 0.01 µM
[23] = second compound 3.16 µM, first compound 0.0316 µM
[24] = second compound 3.16 µM, first compound 0.1 µM
[25] = second compound 10 µM, first compound 0.000316 µM
[26] = second compound 10 µM, first compound 0.001 µM
[27] = second compound 10 µM, first compound 0.00316 µM
[28] = second compound 10 µM, first compound 0.01 µM
[29] = second compound 10 µM, first compound 0.0316 µM
[30] = second compound 10 µM, first compound 0.1 µM
[31] = second compound 0.1 µM, first compound 0.316 µM
[32] = second compound 0.1 µM, first compound 1 µM
[33] = second compound 0.1 µM, first compound 3.16 µM
[34] = second compound 0.1 µM, first compound 10 µM
[35] = second compound 0.316 µM, first compound 0.316 µM
[36] = second compound 0.316 µM, first compound 1 µM
[37] = second compound 0.316 µM, first compound 3.16 µM
[38] = second compound 0.316 µM, first compound 10 µM
[39] = second compound 1 µM, first compound 0.316 µM
[40] = second compound 1 µM, first compound 1 µM
[41] = second compound 1 µM, first compound 3.16 µM
[42] = second compound 1 µM, first compound 10 µM
[43] = second compound 3.16 µM, first compound 0.316 µM
[44] = second compound 3.16 µM, first compound 1 µM
[45] = second compound 3.16 µM, first compound 3.16 µM
[46] = second compound 3.16 µM, first compound 10 µM
[47] = second compound 10 µM, first compound 0.316 µM
[48] = second compound 10 µM, first compound 1 µM
[49] = second compound 10 µM, first compound 3.16 µM
[50] = second compound 10 µM, first compound 10 µM
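For viability, T/C in this document: viability read after seven days of compound exposure; 100% = DMSO vehicle-treated spheroids so lower means less viable.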

Structure (SMILES)	pIC50 (second compound 0.1 µM)	pIC50 (second compound 0.316 µM)	pIC50 (second compound 1 µM)	pIC50 (second compound 3.16 µM)	pIC50 (second compound 10 µM)	viability, T/C [1] [%]	viability, T/C [2] [%]	viability, T/C [3] [%]	viability, T/C [4] [%]	viability, T/C [5] [%]	viability, T/C [6] [%]	viability, T/C [7] [%]	viability, T/C [11] [%]	viability, T/C [12] [%]	viability, T/C [17] [%]	viability, T/C [18] [%]	viability, T/C [23] [%]	viability, T/C [24] [%]	viability, T/C [29] [%]	viability, T/C [30] [%]	other results
CN(C)C/C=C/C(=O)Nc1cc2c(Nc3ccc(F)c(Cl)c3)ncnc2cc1O[C@H]1CCOC1 + CNCc1ccccc1-c1csc(C(C)Nc2nc(C)nc3cc(OC)c(OC)cc23)c1	< 7.00	< 7.00	< 7.00	8.14	> 9.50	100	100	110	117	127	108	110	109	96	119	95.9	16.4	5.67	0.13	0.33	viability, T/C [8]: 96.2%; viability, T/C [9]: 113%; viability, T/C [10]: 119%; viability, T/C [13]: 108%; viability, T/C [14]: 107%; viability, T/C [15]: 102%; viability, T/C [16]: 120%; viability, T/C [19]: 108%; viability, T/C [20]: 103%; viability, T/C [21]: 109%; viability, T/C [22]: 29%; viability, T/C [25]: 0.21%; viability, T/C [26]: 0.22%; viability, T/C [27]: 0.19%; viability, T/C [28]: 0.15%
COc1cc(OC)cc(N(CCNC(C)C)c2ccc3ncc(-c4cnn(C)c4)nc3c2)c1	–	–	–	–	–	–	–	–	–	–	–	–	–	–	–	–	–	–	–	–	viability, T/C (compound 0.0316 µM): 109% [middle of 5 runs]; viability, T/C (compound 0.1 µM): 106% [middle of 5 runs]
CC(C)n1nc(-c2ccc3oc(N)nc3c2)c2c(N)ncnc21 + CNCc1ccccc1-c1csc(C(C)Nc2nc(C)nc3cc(OC)c(OC)cc23)c1	8.25	8.40	8.30	8.93	> 9.50	108	92.5	57	40.3	28.6	16.6	98.8	23.4	19.7	22.9	14.9	8.24	1.61	0.1	0.16	viability, T/C [8]: 80.8%; viability, T/C [9]: 54.7%; viability, T/C [10]: 32.9%; viability, T/C [13]: 96.3%; viability, T/C [14]: 88.8%; viability, T/C [15]: 55.8%; viability, T/C [16]: 37.7%; viability, T/C [19]: 63.9%; viability, T/C [20]: 55.9%; viability, T/C [21]: 14%; viability, T/C [22]: 16.8%; viability, T/C [25]: 0.14%; viability, T/C [26]: 0.13%; viability, T/C [27]: 0.11%; viability, T/C [28]: 0.1%
CC(C)NCC(C(=O)N1CCN(c2ncnc3c2C(C)CC3O)CC1)c1ccc(Cl)cc1 (configuration not stated) + COc1cc2nc(C)nc(NC(C)c3cc(N)cc(C(F)(F)F)c3)c2cc1OC1CCOC1	6.38	6.52	6.44	6.24	7.44	–	–	–	–	103	83.4	–	100	85.4	98.2	87.8	107	90.4	52.4	34.7	viability, T/C [31]: 54.8%; viability, T/C [32]: 34.8%; viability, T/C [33]: 3.87%; viability, T/C [34]: 7.18%; viability, T/C [35]: 47.2%; viability, T/C [36]: 21.6%; viability, T/C [37]: 1.85%; viability, T/C [38]: 7.05%; viability, T/C [39]: 50.2%; viability, T/C [40]: 24.6%; viability, T/C [41]: 1.87%; viability, T/C [42]: 0.23%; viability, T/C [43]: 96.5%; viability, T/C [44]: 5.81%; viability, T/C [45]: 0.99%; viability, T/C [46]: 8.22%; viability, T/C [47]: 18.7%; viability, T/C [48]: 0.82%; viability, T/C [49]: 0.18%; viability, T/C [50]: 0.39%
COc1cc(Nc2ncc3c(n2)-c2ccc(Cl)cc2C(c2c(F)cccc2OC)=NC3)ccc1C(=O)O + CNCc1ccccc1-c1csc(C(C)Nc2nc(C)nc3cc(OC)c(OC)cc23)c1	> 7.50	> 7.50	> 7.50	> 7.50	> 7.50	–	–	–	–	35.7	32.4	–	32.8	27.8	30.1	31.6	4.28	5.85	0.12	0.11	viability, T/C [31]: 29.4%; viability, T/C [32]: 34.1%; viability, T/C [33]: 44.2%; viability, T/C [34]: 43.8%; viability, T/C [35]: 28.8%; viability, T/C [36]: 29.7%; viability, T/C [37]: 38.3%; viability, T/C [38]: 40.8%; viability, T/C [39]: 25.9%; viability, T/C [40]: 30.7%; viability, T/C [41]: 35%; viability, T/C [42]: 35.9%; viability, T/C [43]: 4.27%; viability, T/C [44]: 3.03%; viability, T/C [45]: 0.28%; viability, T/C [46]: 0.7%; viability, T/C [47]: 0.12%; viability, T/C [48]: 0.15%; viability, T/C [49]: 0.11%; viability, T/C [50]: 0.19%
CC(C)n1nc(-c2ccc3oc(N)nc3c2)c2c(N)ncnc21 + COc1cc2nc(C)nc(NC(C)c3cc(N)cc(C(F)(F)F)c3)c2cc1OC1CCOC1	8.12	8.20	7.81	7.76	8.24	98.3	96.3	64.8	47	25.3	17.3	111	19.8	17.2	28.5	13.7	29	16	21.1	8.37	viability, T/C [8]: 93.6%; viability, T/C [9]: 74.1%; viability, T/C [10]: 34.8%; viability, T/C [13]: 108%; viability, T/C [14]: 103%; viability, T/C [15]: 91.8%; viability, T/C [16]: 62.9%; viability, T/C [19]: 109%; viability, T/C [20]: 103%; viability, T/C [21]: 99.8%; viability, T/C [22]: 69%; viability, T/C [25]: 64.5%; viability, T/C [26]: 64.3%; viability, T/C [27]: 58.8%; viability, T/C [28]: 41.9%
CC(C)n1nc(-c2ccc3oc(N)nc3c2)c2c(N)ncnc21 + C=CC(=O)N1CCN(c2nc(OCC3CCCN3C)nc3c2CCN(c2cccc4cccc(C)c24)C3)CC1CC#N	8.00	7.87	8.19	> 9.50	–	88	101	77.8	51.2	27.4	21.2	106	27	16.4	12.8	8.12	0.12	0.16	–	–	pIC50 (second compound 0.0316 µM): 8.15; viability, T/C (second compound 0.0316 µM, first compound 0.000316 µM): 89.7%; viability, T/C (second compound 0.0316 µM, first compound 0.001 µM): 78.9%; viability, T/C (second compound 0.0316 µM, first compound 0.00316 µM): 63.5%; viability, T/C (second compound 0.0316 µM, first compound 0.01 µM): 44.2%; viability, T/C (second compound 0.0316 µM, first compound 0.0316 µM): 28.2%; viability, T/C (second compound 0.0316 µM, first compound 0.1 µM): 16.9%; viability, T/C [8]: 111%; viability, T/C [9]: 97.1%; viability, T/C [10]: 58.2%; viability, T/C [13]: 102%; viability, T/C [14]: 96.1%; viability, T/C [15]: 70.8%; viability, T/C [16]: 38.4%; viability, T/C [19]: 0.26%; viability, T/C [20]: 0.19%; viability, T/C [21]: 0.24%; viability, T/C [22]: 0.14%
